Earlier results as cited in patent US20230210793A1 (priority 2021, published 2023).

O=NN(CCCl)C(=O)NCCCl [Carmustine, 1,3-bis(2-chloroethyl)-1-nitrosourea]
solubility in water: poorly soluble
